Reference: PMC12446476 (Nature Communications, 2025)
Converted amounts (≈) assume the structure as drawn. Read-outs that look alike come from different tables or passages of the source.

System: non-gonococcal Neisseria
Assay: MIC determination for non-gonococcal Neisseria, agar dilution
Format: cell-based, Neisseria species
Details: read-out: Minimum inhibitory concentration
Description: The 2024 WHO N. gonorrhoeae reference strains were used for quality control. Only whole MIC doubling dilutions are reported. Clinical breakpoints or the epidemiological cutoff (ECOFF, to indicate azithromycin resistance) from EUCAST (v14.0, https://www.eucast.org/clinical_breakpoints) were used to classify isolates as antimicrobial susceptible or resistant. […] Two times the standard inoculum defined by CLSI was used to establish consistent growth in untreated control samples for some strains. In vitro time-kill assays were performed according to CLSI guidelines[65] using Columbia Broth (BD Difco) supplemented with 1% IsoVitaleX Enrichment (BD). Viable bacterial counts were generated by plating 10-fold serially diluted samples on GC agar plates containing 1% IsoVitaleX Enrichment (BD).

SMILES: Cc1c(CN(C)C(=O)/C=C/c2cnc3c(c2)N[C@H](C)[C@H](O)C(=O)N3)oc2ccccc12 [Debio 1453]
- MIC (Neisseria mucosa 4, Replicate 1): 1 µg/mL (≈ 2.38 µM)
- MIC (Neisseria mucosa 4, Replicate 2): 1 µg/mL (≈ 2.38 µM)
- MIC (Neisseria mucosa 4, Replicate 3): 1 µg/mL (≈ 2.38 µM)
- MIC (Neisseria mucosa 5, Consensus): 0.5 µg/mL (≈ 1.19 µM)
- MIC (Neisseria mucosa 5, Replicate 1): 0.25 µg/mL (≈ 0.595 µM)
- MIC (Neisseria mucosa 5, Replicate 2): 0.5 µg/mL (≈ 1.19 µM)
- MIC (Neisseria mucosa 5, Replicate 3): 0.5 µg/mL (≈ 1.19 µM)
- MIC (Neisseria mucosa 6, Consensus): 0.5 µg/mL (≈ 1.19 µM)
- MIC (Neisseria mucosa 6, Replicate 1): 0.25 µg/mL (≈ 0.595 µM)
- MIC (Neisseria mucosa 6, Replicate 2): 0.5 µg/mL (≈ 1.19 µM)
- MIC (Neisseria mucosa 6, Replicate 3): 0.5 µg/mL (≈ 1.19 µM)
- MIC (Neisseria mucosa 7, Consensus): 0.25 µg/mL (≈ 0.595 µM)
- MIC (Neisseria mucosa 7, Replicate 1): 0.25 µg/mL (≈ 0.595 µM)
- MIC (Neisseria mucosa 7, Replicate 2): 0.25 µg/mL (≈ 0.595 µM)
- MIC (Neisseria mucosa 7, Replicate 3): 0.25 µg/mL (≈ 0.595 µM)
- MIC (Neisseria mucosa 8, Consensus): 1 µg/mL (≈ 2.38 µM)
- MIC (Neisseria mucosa 8, Replicate 1): 1 µg/mL (≈ 2.38 µM)
- MIC (Neisseria mucosa 8, Replicate 2): 1 µg/mL (≈ 2.38 µM)
- MIC (Neisseria mucosa 8, Replicate 3): 1 µg/mL (≈ 2.38 µM)
- MIC (Neisseria mucosa 9, Consensus): 2 µg/mL (≈ 4.76 µM)
- MIC (Neisseria mucosa 9, Replicate 1): 1 µg/mL (≈ 2.38 µM)
- MIC (Neisseria mucosa 9, Replicate 2): 2 µg/mL (≈ 4.76 µM)
- MIC (Neisseria mucosa 9, Replicate 3): 2 µg/mL (≈ 4.76 µM)
- MIC (Neisseria perflava 1, Consensus): 0.25 µg/mL (≈ 0.595 µM)
- MIC (Neisseria perflava 1, Replicate 1): 0.25 µg/mL (≈ 0.595 µM)
- MIC (Neisseria perflava 1, Replicate 2): 0.25 µg/mL (≈ 0.595 µM)
- MIC (Neisseria perflava 1, Replicate 3): 0.25 µg/mL (≈ 0.595 µM)
- MIC (Neisseria perflava 2, Consensus): 0.032 µg/mL (≈ 0.0761 µM)
- MIC (Neisseria perflava 2, Replicate 1): 0.032 µg/mL (≈ 0.0761 µM)
- MIC (Neisseria perflava 2, Replicate 2): 0.032 µg/mL (≈ 0.0761 µM)
- MIC (Neisseria perflava 2, Replicate 3): 0.032 µg/mL (≈ 0.0761 µM)
- MIC (Neisseria perflava 3, Consensus): 0.032 µg/mL (≈ 0.0761 µM)
- MIC (Neisseria perflava 3, Replicate 1): 0.032 µg/mL (≈ 0.0761 µM)
- MIC (Neisseria perflava 3, Replicate 2): 0.032 µg/mL (≈ 0.0761 µM)
- MIC (Neisseria perflava 3, Replicate 3): 0.032 µg/mL (≈ 0.0761 µM)
- MIC (Neisseria perflava 4, Consensus): 0.25 µg/mL (≈ 0.595 µM)
- MIC (Neisseria perflava 4, Replicate 1): 0.25 µg/mL (≈ 0.595 µM)
- MIC (Neisseria perflava 4, Replicate 2): 0.25 µg/mL (≈ 0.595 µM)
- MIC (Neisseria perflava 4, Replicate 3): 0.25 µg/mL (≈ 0.595 µM)
- MIC (Neisseria perflava 6, Consensus): 0.25 µg/mL (≈ 0.595 µM)
- MIC (Neisseria perflava 6, Replicate 1): 0.25 µg/mL (≈ 0.595 µM)
- MIC (Neisseria perflava 6, Replicate 2): 0.5 µg/mL (≈ 1.19 µM)
- MIC (Neisseria perflava 6, Replicate 3): 0.25 µg/mL (≈ 0.595 µM)
- MIC (Neisseria perflava 7, Consensus): 0.5 µg/mL (≈ 1.19 µM)
- MIC (Neisseria perflava 7, Replicate 1): 0.5 µg/mL (≈ 1.19 µM)
- MIC (Neisseria perflava 7, Replicate 2): 0.5 µg/mL (≈ 1.19 µM)
- MIC (Neisseria perflava 7, Replicate 3): 0.5 µg/mL (≈ 1.19 µM)
- MIC (Neisseria perflava 8, Consensus): 0.25 µg/mL (≈ 0.595 µM)
- MIC (Neisseria perflava 8, Replicate 1): 0.25 µg/mL (≈ 0.595 µM)
- MIC (Neisseria perflava 8, Replicate 2): 0.5 µg/mL (≈ 1.19 µM)
- MIC (Neisseria perflava 8, Replicate 3): 0.25 µg/mL (≈ 0.595 µM)
- MIC (Neisseria perflava 9, Consensus): 0.5 µg/mL (≈ 1.19 µM)
- MIC (Neisseria perflava 9, Replicate 1): 0.25 µg/mL (≈ 0.595 µM)
- MIC (Neisseria perflava 9, Replicate 2): 0.5 µg/mL (≈ 1.19 µM)
- MIC (Neisseria perflava 9, Replicate 3): 0.5 µg/mL (≈ 1.19 µM)
- MIC (Neisseria perflava 10, Consensus): 0.5 µg/mL (≈ 1.19 µM)
- MIC (Neisseria perflava 10, Replicate 1): 0.5 µg/mL (≈ 1.19 µM)
- MIC (Neisseria perflava 10, Replicate 2): 0.5 µg/mL (≈ 1.19 µM)
- MIC (Neisseria perflava 10, Replicate 3): 0.5 µg/mL (≈ 1.19 µM)
- MIC (Neisseria perflava 11, Consensus): 1 µg/mL (≈ 2.38 µM)
- MIC (Neisseria perflava 11, Replicate 1): 1 µg/mL (≈ 2.38 µM)
- MIC (Neisseria perflava 11, Replicate 2): 1 µg/mL (≈ 2.38 µM)
- MIC (Neisseria perflava 11, Replicate 3): 0.5 µg/mL (≈ 1.19 µM)
- MIC (Neisseria perflava 12, Consensus): 0.5 µg/mL (≈ 1.19 µM)
- MIC (Neisseria perflava 12, Replicate 1): 0.5 µg/mL (≈ 1.19 µM)
- MIC (Neisseria perflava 12, Replicate 2): 0.5 µg/mL (≈ 1.19 µM)
- MIC (Neisseria perflava 12, Replicate 3): 0.5 µg/mL (≈ 1.19 µM)
- MIC (Neisseria perflava 13, Consensus): 0.25 µg/mL (≈ 0.595 µM)
- MIC (Neisseria perflava 13, Replicate 1): 0.25 µg/mL (≈ 0.595 µM)
- MIC (Neisseria perflava 13, Replicate 2): 0.25 µg/mL (≈ 0.595 µM)
- MIC (Neisseria perflava 13, Replicate 3): 0.25 µg/mL (≈ 0.595 µM)
- MIC (Neisseria perflava 14, Consensus): 0.5 µg/mL (≈ 1.19 µM)
- MIC (Neisseria perflava 14, Replicate 1): 0.5 µg/mL (≈ 1.19 µM)
- MIC (Neisseria perflava 14, Replicate 2): 0.5 µg/mL (≈ 1.19 µM)
- MIC (Neisseria perflava 14, Replicate 3): 0.5 µg/mL (≈ 1.19 µM)
- MIC (Neisseria perflava 15, Consensus): 0.5 µg/mL (≈ 1.19 µM)
- MIC (Neisseria perflava 15, Replicate 1): 0.5 µg/mL (≈ 1.19 µM)
- MIC (Neisseria perflava 15, Replicate 2): 0.5 µg/mL (≈ 1.19 µM)
- MIC (Neisseria perflava 15, Replicate 3): 0.5 µg/mL (≈ 1.19 µM)
- MIC (Neisseria perflava 16, Consensus): 0.5 µg/mL (≈ 1.19 µM)
- MIC (Neisseria perflava 16, Replicate 1): 0.5 µg/mL (≈ 1.19 µM)
- MIC (Neisseria perflava 16, Replicate 2): 0.5 µg/mL (≈ 1.19 µM)
- MIC (Neisseria perflava 16, Replicate 3): 1 µg/mL (≈ 2.38 µM)
- MIC (Neisseria perflava 17, Consensus): 0.5 µg/mL (≈ 1.19 µM)
- MIC (Neisseria perflava 17, Replicate 1): 0.5 µg/mL (≈ 1.19 µM)
- MIC (Neisseria perflava 17, Replicate 2): 0.5 µg/mL (≈ 1.19 µM)
- MIC (Neisseria perflava 17, Replicate 3): 0.5 µg/mL (≈ 1.19 µM)
- MIC (Neisseria perflava 18, Replicate 2): 0.25 µg/mL (≈ 0.595 µM)
- MIC (Neisseria perflava 19, Consensus): 1 µg/mL (≈ 2.38 µM)
- MIC (Neisseria perflava 19, Replicate 1): 1 µg/mL (≈ 2.38 µM)
- MIC (Neisseria perflava 19, Replicate 2): 1 µg/mL (≈ 2.38 µM)
- MIC (Neisseria perflava 19, Replicate 3): 1 µg/mL (≈ 2.38 µM)
- MIC (Neisseria perflava 20, Consensus): 0.5 µg/mL (≈ 1.19 µM)
- MIC (Neisseria perflava 20, Replicate 1): 0.5 µg/mL (≈ 1.19 µM)
- MIC (Neisseria perflava 20, Replicate 2): 0.5 µg/mL (≈ 1.19 µM)
- MIC (Neisseria perflava 20, Replicate 3): 0.5 µg/mL (≈ 1.19 µM)
- MIC (Neisseria perflava 21, Consensus): 1 µg/mL (≈ 2.38 µM)
- MIC (Neisseria perflava 21, Replicate 1): 1 µg/mL (≈ 2.38 µM)
- MIC (Neisseria perflava 21, Replicate 2): 1 µg/mL (≈ 2.38 µM)
- MIC (Neisseria perflava 21, Replicate 3): 1 µg/mL (≈ 2.38 µM)
- MIC (Neisseria perflava 22, Consensus): 1 µg/mL (≈ 2.38 µM)
- MIC (Neisseria perflava 22, Replicate 1): 1 µg/mL (≈ 2.38 µM)
- MIC (Neisseria perflava 22, Replicate 2): 1 µg/mL (≈ 2.38 µM)
- MIC (Neisseria perflava 22, Replicate 3): 1 µg/mL (≈ 2.38 µM)
- MIC (Neisseria perflava 23, Consensus): 0.5 µg/mL (≈ 1.19 µM)
- MIC (Neisseria perflava 23, Replicate 1): 0.5 µg/mL (≈ 1.19 µM)
- MIC (Neisseria perflava 23, Replicate 2): 0.5 µg/mL (≈ 1.19 µM)
- MIC (Neisseria perflava 23, Replicate 3): 0.5 µg/mL (≈ 1.19 µM)
- MIC (Neisseria perflava 25, Consensus): 1 µg/mL (≈ 2.38 µM)
- MIC (Neisseria perflava 25, Replicate 1): 1 µg/mL (≈ 2.38 µM)
- MIC (Neisseria perflava 25, Replicate 2): 1 µg/mL (≈ 2.38 µM)
